Assay results published in patent US7696238B2, “Substituted benzo[d]isoxazol-3-yl amine compounds as analgesics” (Gruenenthal GmbH, priority 2005, dated 2010).

Columns and labels:
[1] = target: T1, hKCNQ2/3 (stably transfected hKCNQ2/3 CHO-K1 cell line) (Homo sapiens, UniProt O43525+O43526); assay: Voltage clamp (patch-clamp) measurements, current increase relative to retigabin; format: cell-based; settings: test substance 10 μM at −40 mV; current increase standardized to retigabin (10 μM) effect
T1 construct: expressed in transfected cells; host or cells: CHO-K1
Protocol: II. Voltage Clamp Measurements
In order to confirm electrophysiologically a KCNQ2/3 agonistic action of the substances, patch-clamp measurements [see Hamill O P, Marty A, Neher E, Sakmann B, Sigworth F J: “Improved patch-clamp techniques for high-resolution current recording from cells and cell-free membrane patches”, Pflugers Arch. 1981 August; 391(2):85-100] were carried out in the voltage clamp mode on a stably transfected hKCNQ2/3 CHO-K1 cell line. After formation of the gigaseal the cells were first of all clamped at a holding potential of −60 mV. Depolarising voltage jumps were then applied up to a potential of +20 mV (increment: 20 mV, duration: 1 second), in order to confirm the functional expression of KCNQ2/3 typical currents. The substances were tested at a potential of −40 mV. The current increase induced by retigabin (10 μM) was first of all recorded on each cell at −40 mV as positive control. After completely washing out the retigabin effect (duration: 80 sec) the test substance (10 μM) was applied. The current increase induced by the test substance was standardized to the retigabin effect and stated as relative efficacy (see below).

[2] = target: T2, KCNQ2/3 ion channel (KCNQ2/3-expressing CHO-K1 cells) (Homo sapiens, UniProt O43525+O43526); assay: Fluorescence assay (FLIPR instrument, membrane potential dye) for substances acting agonistically on the KCNQ2/3 ion channel; format: cell-based; settings: difference between maximum and minimum values, agonistic action detected from a value of −40 (and below)
T2 construct: expressed in transfected cells; host or cells: CHO-K1
Protocol: Pharmacological Test Methods I. Fluorescence Assay (FLIPR™ Instrument) for the Identification of Substances Acting Agonistically on the KCNQ2/3 Ion Channel
On the day before the experiment, KCNQ2/3-expressing CHO-K1 cells and CHO-K1 empty strain cells were seeded out onto coated poly-D-lysine black/clear plates (Falcon/BD Company; Order No.: 356640) in a concentration of 20000 cells/100 μl MEM alpha, 50 ml FCS, 5.5 ml PIS/G/solution (100×) and then incubated for 20-24 hours in an incubator (37° C., 5% CO2). On the day of the experiment the HBSS/hepes working solution and the FMP/HBSS/hepes mixture (Membrane Potential Assay Kit Red (FMP), bulk format Cat. No. R8123) were initially prepared according to the following protocol:
• 1000 ml 1× HBSS buffer (Hank's Balanced Salt Solution (1×) (Gibco; No. 14025)+10 ml hepes (1M stock solution, pH 7.4; hepes Na salt (Sigma Company; No. H7006-500 g; storage at 4° C. in a refrigerator) 2. 1× FMP/HBSS/hepes working solution: • 6 ml HBSS/hepes buffer are added to 5 ml of the FMP solution stored at −20° C. (preparation see below; thawing out at room temperature). The test substances (2 mM batch solution in 100% DMSO) contained in drug plates (Costar 96-well plates, catalogue No. 3795) were then diluted by adding HBSS/hepes buffer to a concentration of 30 μM (3× concentrated). The assay plates on which the cells grow were washed once with 200 μl HBSS/hepes (Cellwash Washer, Labsystems Company, catalogue No. 5161550) and the remaining volume was removed by tapping out the inverted plate twice. 100 μl of the FMP/HBSS/hepes working solution were then added in each case to the cell plates and incubated for 1 hour in the CO2 incubator at 37° C. and 5% CO2. The measurements are then carried out with a FLIPR III instrument from the Molecular Devices company (96-format, using the 540-590 nm band-pass filter in the #2 localization). In the experimental setup of the FLIPR software, filter #2 should be selected. The cell plates and the substance plates were fed alternately into the input stack. A signal test was carried out in each case with the cell plates before adding the substance. The test substances were then added via the pipetting unit of the FLIPR (added volume 50 μl, 3× concentrated, end concentration 10 μM) to the cavities of the cell plates in a total volume of 150 μl/well. The threshold data of the FLIPR program were as follows:
The pipette tips were washed after each pipetting procedure 3 times with 1% DMSO in water. The times of the measurement intervals after addition of the test substances are as follows:
Total measurement time: 6 min/plate
The test samples were evaluated by calculating the difference between the maximum and minimum values. EC50/IC50 values are calculated using the Graph Pad Prism software.
Preparation of the membrane potential loading buffer (membrane potential assay kit red (FMP), bulk format cat. No. R8123) according to the manufacturer's instructions:
10 ml of the 10× assay buffer (component B) were diluted with 90 ml of sterile water and then adjusted to pH 7.4 with 1.0N NaOH (1× assay buffer). One vessel with the FLIPR membrane potential assay component A was completely dissolved in 100 ml 1× assay buffer and thoroughly mixed for 10 minutes with a magnetic stirrer. 5 ml aliquots were then stored at −20° C. (storage shelf life ca. 2 weeks).
An agonistic action can be detected starting from a value of −40 (and below).

Row | SMILES | Voltage clamp: relative efficacy with respect to retigabin [10 μM] [1] | FLIPR membrane potential fluorescence change (ΔF %, max minus min); negative values indicate KCNQ2/3 agonism [2]
1 | CC(Nc1noc2ccccc12)c1ccc(C(F)(F)F)cc1 (centres unmarked) [Example 1, Benzo[d]isoxazol-3-yl-[1-(4-trifluoro-methylphenyl)-ethyl]-amine] | 0.42 | 
2 | CC(Nc1noc2ccccc12)c1ccc(SC(F)(F)F)cc1 (centres unmarked) [Example 2, Benzo[d]isoxazol-3-yl-[1-(4-trifluoromethyl-sulfanylphenyl)-ethyl]-amine] | 0.37 | 
3 | N#Cc1cccc(NC(=S)Nc2noc3cc(F)ccc23)c1 [Example 112, 1-(3-cyanophenyl)-3-(6-fluoro-benzo[d]isoxazol-3-yl)-thiourea] | 0.3 | 
4 | COc1cccc2onc(NC(=S)NCc3ccc(Cl)cc3)c12 [Example 129, 1-(4-chlorobenzyl)-3-(4-methoxy-benzo[d)isoxazol-3-yl)-thiourea] |  | −42%
5 | COc1ccccc1NC(=S)Nc1noc2cccc(OC)c12 [Example 130, 1-(4-methoxybenzo[d]isoxazol-3-yl)-3-(2-methoxyphenyl)-thiourea] | 0.2 | 
6 | COc1ccc(Cl)cc1NC(=S)Nc1noc2cccc(OC)c12 [Example 132, 1-(5-chloro-2-methoxyphenyl)-3-(4-methoxybenzo[d]isoxazol-3-yl)-thiourea] |  | −45%
7 | COc1ccc(NC(=S)Nc2noc3cccc(OC)c23)c(OC)c1 [Example 134, 1-(2,4-dimethoxyphenyl)-3-(4-methoxybenzo[d]isoxazol-3-yl)-thiourea] |  | −42%
8 | COc1cc(NC(=S)Nc2noc3cccc(OCC(F)(F)F)c23)cc(OC)c1OC [Example 135, 1-[4-(2,2,2-trifluoroethoxy)-benzo[d]isoxazol-3-yl]-3-(3,4,5-trimethoxyphenyl)-thiourea] |  | −47.5%
9 | FC(F)(F)c1ccc(CNc2noc3ccccc23)cc1 [Example 152, benzo[d]isoxazol-3-yl-(4-trifluoromethylbenzyl)-amine] | 0.22 | −49%
10 | FC(F)(F)Oc1ccc(CNc2noc3ccccc23)cc1 [Example 158, benzo[d]isoxazol-3-yl-(4-trifluoromethoxybenzyl)-amine] |  | −53%
11 | Fc1ccc2onc(NCc3ccc(OC(F)(F)F)cc3)c2c1 [Example 159, (5-fluorobenzo[d]isoxazol-3-yl)-(4-trifluoromethoxy-benzyl)-amine] | 0.42 | −41%
12 | FC(F)(F)Sc1ccc(CNc2noc3ccccc23)cc1 [Example 160, benzo[d]isoxazol-3-yl-(4-trifluoromethylsulfanyl-benzyl)-amine] | 0.45 | −58%
13 | CCCCc1ccc(CNc2noc3cc(Cl)ccc23)cc1 [Example 161, (4-butylbenzyl)-(6-chloro-benzo[d]isoxazol-3-yl)-amine] | 0.61 | −40%
14 | Fc1ccc2onc(NCc3ccc(SC(F)(F)F)cc3)c2c1 [Example 162, (5-fluorobenzo[d]isoxazol-3-yl)-(4-trifluoromethyl-sulfanylbenzyl)-amine] | 0.79 | 
15 | Fc1cc(C(F)(F)F)ccc1CNc1noc2ccccc12 [Example 163, benzo[d]isoxazol-3-yl-(2-fluoro-4-trifluoromethyl-benzyl)-amine] | 1.29 | −56%
16 | Cc1cc(C)cc(CNc2noc3c(F)cccc23)c1 [Example 167, (3,5-dimethylbenzyl)-(7-fluorobenzo[d]isoxazol-3-yl)-amine] | 0.25 | −61%
17 | COc1ccc(CNc2noc3cc(F)ccc23)cc1Br [Example 168, (3-bromo-4-methoxy-benzyl)-(6-fluorobenzo[d]-isoxazol-3-yl)-amine] | 0.35 | 
18 | Cc1cc(C)cc(CNc2noc3cc(F)ccc23)c1 [Example 169, (3,5-dimethylbenzyl)-(6-fluorobenzo[d]isoxazol-3-yl)-amine] |  | −63.25%
19 | Cc1cc(CNc2noc3cc(F)ccc23)cc(C)c1OCc1ccccc1 [Example 170, (4-benzyloxy-3,5-dimethyl-benzyl)-(6-fluorobenzo[d]isoxazol-3-yl)-amine] | 0.72 | 
20 | CCCCc1ccc(CNc2noc3cc(F)ccc23)cc1 [Example 171, (4-butylbenzyl)-(6-fluorobenzo[d]isoxazol-3-yl)-amine] | 0.68 | −53%
21 | Fc1ccc2c(NCc3ccc(SC(F)(F)F)cc3)noc2c1 [Example 172, (6-fluorobenzo[d]isoxazol-3-yl)-(4-trifluoromethyl-sulfanyl-benzyl)-amine] |  | −68%
22 | Fc1ccc2c(NCc3cccc(OCc4ccccc4)c3)noc2c1 [Example 173, (3-benzyloxybenzyl)-(6-fluorobenzo[d]isoxazol-3-yl)-amine] | 0.84 | −55%
23 | Cc1cc(C)cc(CNc2noc3cccc(N)c23)c1 [Example 174, N3-(3,5-dimethylbenzyl)-benzo[d]isoxazole-3,4-diamine] | 0.8 | −45.5%
24 | FC(F)(F)Sc1ccc(CNc2noc3ccc(Br)cc23)cc1 [Example 176, (5-bromobenzo[d]isoxazol-3-yl)-(4-trifluoromethyl-sulfanyl-benzyl)-amine] | 0.62 | 
25 | Fc1c(Cl)cccc1CNc1noc2cccc(Cl)c12 [Example 200, (4-chlorobenzo[d]isoxazol-3-yl)-(3-chloro-2-fluoro-benzyl)-amine] |  | −74%
26 | Fc1cccc2c(NCc3cccc(OC(F)(F)F)c3)noc12 [Example 203, (7-fluorobenzo[d]isoxazol-3-yl)-(3-trifluoromethoxy-benzyl)-amine] |  | −49%
